The target in test [1] is METTL3/METTL14 (Homo sapiens, UniProt Q86U44). In words: METTL3-14 standard enzyme assay (3H-SAM flashplate scintillation). The class given is biochemical. The note with it: METTL3/METTL14 2.5 nM, RNA 100 nM, 3H-SAM 100 nM, 30 min. The protocol:
METTL3-14 Standard Enzyme Assay
Assays were performed in a 25 μl-volume in 384-well V-bottom polypropylene microplates (Greiner Bio-One, cat. No. 781280) at ambient temperature. Optimized 1× assay buffer was 20 mM HEPES pH 7.5, 50 mM KCl, 250 μM MgCl2, 1 mM DTT, 0.01% Tween, 0.01% BSG, 0.004 U/μl RNAseOUT (cat. No. 10777019, ThermoFisher Scientific, Waltham, Mass.). For compound screening METTL3/METTL14 (final concentration, f.c.=2.5 nM) was added using a Multidrop Combi (ThermoFisher Scientific, Waltham, Mass.) and preincubated for 5 min. Reactions were started by adding 3′ biotinylated RNA (UCUGGACUAAA-biotin) (f.c.=100 nM) and 3H-SAM (f.c.=100 nM) substrates. Reactions proceeded for 30 minutes and were quenched with excess non-radioactive SAM (f.c.=15 μM). The reactions were then transferred to streptavidin-coated flashplates and incubated for 2 hours at 25° C. Following two washing cycles with 0.1% Tween-20, the plates were sealed and read on a TopCount (PerkinElmer, Waltham, Mass.) plate-based scintillation counter. For determination of kinetic parameters, reaction times were optimized so that measurements were taken during the initial velocity phase of the reaction.

For test [2], the target named is PRMT5-MEP50 (Homo sapiens, UniProt O14744). In words: PRMT5 assay (3H-SAM flashplate scintillation). The class given is biochemical. To be noted: PRMT5-MEP50 2.5 nM, histone H4 peptide 100 nM, 3H-SAM 250 nM, 60 min. The protocol:
Assays were performed in a 25 μl-volume in 384-well V-bottom polypropylene microplates (Greiner Bio-One, cat. No. 781280) at ambient temperature. Optimized 1× assay buffer was 20 mM Tris-HCl pH 8.0, 1 mM DTT, […]. For compound screening PRMT5-MEP50 (final concentration, f.c.=2.5 nM) was added using a Multidrop Combi (ThermoFisher Scientific, Waltham, Mass.) and preincubated for 5 min. Reactions were started by adding 3′ biotinylated histone H4 peptide acetylated on serine 1 (Ac-[…]-Biotin) (f.c.=100 nM) and 3H-SAM (f.c.=250 nM) substrates. Reactions proceeded for 60 minutes and were quenched with excess non-radioactive SAM (f.c.=15 μM). The reactions were then transferred to streptavidin-coated flashplates and incubated for 2 hours at 25° C. Following two washing cycles with 0.1% Tween-20, the plates were sealed and read on a TopCount (PerkinElmer, Waltham, Mass.) plate-based scintillation counter. For determination of kinetic parameters, reaction times were optimized so that measurements were taken during the initial velocity phase of the reaction.

Structures are written as SMILES.

Chain of METTL3/METTL14 (Q86U44 whole entry, species assumed): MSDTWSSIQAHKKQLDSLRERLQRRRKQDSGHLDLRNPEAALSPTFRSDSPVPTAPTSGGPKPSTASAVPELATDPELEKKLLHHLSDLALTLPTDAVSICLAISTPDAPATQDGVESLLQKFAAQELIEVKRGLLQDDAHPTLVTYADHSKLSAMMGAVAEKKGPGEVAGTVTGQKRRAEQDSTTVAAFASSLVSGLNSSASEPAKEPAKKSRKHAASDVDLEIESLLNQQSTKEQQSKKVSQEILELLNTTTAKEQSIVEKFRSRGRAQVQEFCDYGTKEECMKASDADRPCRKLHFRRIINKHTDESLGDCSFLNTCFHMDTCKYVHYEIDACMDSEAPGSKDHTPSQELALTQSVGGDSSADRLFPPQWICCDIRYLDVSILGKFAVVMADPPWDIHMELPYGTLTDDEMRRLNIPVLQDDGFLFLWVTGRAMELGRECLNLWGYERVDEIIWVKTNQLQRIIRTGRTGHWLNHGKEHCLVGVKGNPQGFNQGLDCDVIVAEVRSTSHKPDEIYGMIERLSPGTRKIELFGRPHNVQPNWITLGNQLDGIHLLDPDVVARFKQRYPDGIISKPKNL
Chain of METTL3/METTL14 (Q9HCE5 whole entry partner, species assumed): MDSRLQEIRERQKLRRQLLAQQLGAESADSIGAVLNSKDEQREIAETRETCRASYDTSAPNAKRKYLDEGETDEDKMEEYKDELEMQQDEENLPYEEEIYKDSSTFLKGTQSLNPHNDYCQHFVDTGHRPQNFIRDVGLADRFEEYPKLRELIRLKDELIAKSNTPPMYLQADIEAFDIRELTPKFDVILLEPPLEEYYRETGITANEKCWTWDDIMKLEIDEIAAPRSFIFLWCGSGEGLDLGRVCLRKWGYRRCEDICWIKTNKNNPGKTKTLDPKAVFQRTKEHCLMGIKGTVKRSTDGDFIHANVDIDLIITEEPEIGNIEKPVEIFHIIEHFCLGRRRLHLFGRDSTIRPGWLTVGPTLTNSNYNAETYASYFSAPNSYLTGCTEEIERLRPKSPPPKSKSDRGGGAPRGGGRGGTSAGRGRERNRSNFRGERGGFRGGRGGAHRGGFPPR
Chain of PRMT5-MEP50 (O14744 whole entry): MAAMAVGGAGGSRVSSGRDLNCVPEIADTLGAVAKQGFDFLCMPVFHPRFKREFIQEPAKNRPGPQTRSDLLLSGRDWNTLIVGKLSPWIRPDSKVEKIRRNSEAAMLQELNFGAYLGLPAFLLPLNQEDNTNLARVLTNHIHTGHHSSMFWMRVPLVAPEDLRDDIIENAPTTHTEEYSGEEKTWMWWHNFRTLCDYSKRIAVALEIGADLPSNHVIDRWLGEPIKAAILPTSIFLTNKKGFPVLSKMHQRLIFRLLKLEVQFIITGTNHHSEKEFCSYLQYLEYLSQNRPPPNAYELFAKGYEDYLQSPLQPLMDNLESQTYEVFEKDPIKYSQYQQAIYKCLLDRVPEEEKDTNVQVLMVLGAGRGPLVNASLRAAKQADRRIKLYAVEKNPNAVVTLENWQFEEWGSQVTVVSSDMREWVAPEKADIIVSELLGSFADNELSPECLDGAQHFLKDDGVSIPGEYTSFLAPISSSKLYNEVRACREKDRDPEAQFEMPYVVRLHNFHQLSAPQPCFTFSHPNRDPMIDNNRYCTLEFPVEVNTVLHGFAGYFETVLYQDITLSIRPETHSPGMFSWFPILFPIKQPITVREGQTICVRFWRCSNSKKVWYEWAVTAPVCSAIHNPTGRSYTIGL
Chain of PRMT5-MEP50 (Q9BQA1 whole entry partner): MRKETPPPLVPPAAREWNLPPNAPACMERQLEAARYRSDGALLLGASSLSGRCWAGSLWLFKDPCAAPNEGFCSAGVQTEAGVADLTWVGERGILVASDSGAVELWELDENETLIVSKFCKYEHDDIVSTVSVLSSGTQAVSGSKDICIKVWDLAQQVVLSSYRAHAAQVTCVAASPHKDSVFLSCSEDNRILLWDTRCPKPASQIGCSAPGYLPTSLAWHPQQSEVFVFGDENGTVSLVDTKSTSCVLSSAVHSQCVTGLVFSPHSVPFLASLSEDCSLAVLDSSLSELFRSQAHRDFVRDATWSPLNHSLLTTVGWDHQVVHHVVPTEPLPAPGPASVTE

With `Nc1ncnc2c1ccn2-c1csc(COc2ccc3ccc(N4CCCC4)nc3c2)n1` [Compound I-54], the results for the IC50 in test [1] and in test [2] were 0.1 to 1 µM and above 1 µM, respectively.
`Nc1ncnc2c1c(Cl)cn2-c1cccc(COc2ccc3ccc(N4CCCC4)nc3c2)c1` [Compound I-63]: the IC50 in test [1] was above 1 µM.
Take `CC(C)c1cc(N)c2ccc(OCc3cncc(-c4c[nH]c5c(N)ncnc45)c3)cc2n1` [Compound I-101]: the values for the IC50 in test [1] and in test [2] were below 0.01 µM and above 1 µM, respectively.
As for `Cc1cc(NCCN(C)CCCCc2ccccc2)c2ccc(OCc3cncc(-n4ccc5c(N)ncnc54)c3)cc2n1` [Compound I-102], the IC50 in test [1] was 0.01 to 0.1 µM; in test [2], above 1 µM.
With `Cc1cc(NCCN(C)CCCCCc2ccccc2)c2ccc(OCc3cncc(-n4ccc5c(N)ncnc54)c3)cc2n1` [Compound I-103], the IC50 in test [1] is 0.01 to 0.1 µM; in test [2], above 1 µM.
The like results for `CCc1cc(=O)c2ccc(OCc3cncc(-n4cc(C5CCCC5)c5c(N)ncnc54)c3)cc2[nH]1` [Compound I-105] were, in that order, 0.1 to 1 µM and above 1 µM.
In test [1], `CC(C)c1cc(N)c2ccc(CCc3cncc(-n4ccc5c(N)ncnc54)c3)cc2n1` [Compound I-129] came in with a concentration for half-maximal inhibition (IC50) of 0.01 to 0.1 µM.
In test [1], `CC(C)c1cc(N)c2ccc(CCc3cncc(-n4cc(C5CCCC5)c5c(N)ncnc54)c3)cc2n1` [Compound I-130] displayed an IC50 of 0.01 to 0.1 µM.
Still for that read-out and setting: for `CCc1cc(NCCOC)c2ccc(OCc3cncc(-n4cc([C@H]5CCCO5)c5c(N)ncnc54)c3)cc2n1` [Compound I-133] the value was 0.01 to 0.1 µM; for `CCNc1ccc2ccc(CCc3cncc(-n4cc([C@H]5CCCO5)c5c(N)ncnc54)n3)cc2n1` [Compound I-139], 0.01 to 0.1 µM; for `CCNc1ccc2ccc(CCc3cncc(-n4cc([C@@H]5CCCO5)c5c(N)ncnc54)n3)cc2n1` [Compound I-140], below 0.01 µM.
Same read-out and setting: the result for `CCc1cc(N2CCNCC2)c2ccc(OCc3cncc(-n4cc([C@H]5CCCO5)c5c(N)ncnc54)c3)cc2n1` [Compound I-148] reads 0.01 to 0.1 µM.
Regarding `CCc1cc(NCCOC)c2ncc(OCc3cncc(-n4cc([C@H]5CCCO5)c5c(N)ncnc54)c3)cc2n1` [Compound I-151], in test [1], the IC50 was in the range of 0.01 to 0.1 µM.
Still for that read-out and setting: for `CCNc1ccc2ccc(CCc3cncc(-n4cc(C5CCCO5)c5c(N)ncnc54)c3)cc2n1` (stereo not shown) [Compound I-157] the value was 0.01 to 0.1 µM.
Same read-out and setting: for `Nc1ncnc2c1c([C@H]1CCCO1)cn2-c1cncc(COc2ccc3ccc(N4CCC4)nc3c2)n1` [Compound I-160] the value was 0.01 to 0.1 µM; for `Nc1ncnc2c1c([C@@H]1CCCO1)cn2-c1cncc(COc2ccc3ccc(N4CCC4)nc3c2)n1` [Compound I-161], below 0.01 µM.
The same measure, in the same setting: for `CCc1cc(NCCOC)c2c(F)cc(OCc3cncc(-n4cc([C@H]5CCCO5)c5c(N)ncnc54)c3)cc2n1` [Compound I-163] the value was 0.01 to 0.1 µM; for `CCc1cc(NCCOC)c2c(F)cc(OCc3cncc(-n4cc([C@@H]5CCCO5)c5c(N)ncnc54)c3)cc2n1` [Compound I-164], 0.01 to 0.1 µM.
In test [1], `CCc1cc(NC(C)=O)c2ccc(OCc3cncc(-n4cc([C@@H]5CCCO5)c5c(N)ncnc54)c3)cc2n1` [Compound I-165] gave a half-maximal inhibitory concentration (IC50) of 0.01 to 0.1 µM.
Still for that read-out and setting: the result for `Nc1cc(OCc2cncc(-n3cc([C@@H]4CCCO4)c4c(N)ncnc43)c2)ccc1C(=O)N1CCNCC1` [Compound I-166] reads 0.1 to 1 µM; that for `CCc1cc(C)c2ccc(OCc3cncc(-n4cc([C@@H]5CCCO5)c5c(N)ncnc54)c3)cc2n1` [Compound I-168], 0.01 to 0.1 µM.
Take `CC1COc2ccc(OCc3cncc(-n4cc(-c5ccn(C)n5)c5c(N)ncnc54)c3)cc2N1` (stereo not shown) [Compound I-171]: the IC50 in test [1] and in test [2] was above 1 µM throughout.
`CCc1cc(NCCOC)c2c(F)cc(OCc3cncc(-n4cc(C5CCCO5)c5c(N)ncnc54)n3)cc2n1` (stereo not shown) [Compound I-172]: the IC50 in test [1] and in test [2] was above 1 µM each time.
As to `C[S+]([O-])c1cn(-c2cncc(COc3ccc4ccc(N5CCC5)nc4c3)c2)c2ncnc(N)c12` (stereo not shown) [Compound I-173], the values for the IC50 in test [1] and in test [2] were 0.1 to 1 µM and above 1 µM, respectively.
For `CCc1cc(N(C)C2CC2)c2ccc(OCc3cncc(-n4cc([C@@H]5CCCO5)c5c(N)ncnc54)n3)cc2n1` [Compound I-174], the values for the IC50 in test [1] and in test [2] were 0.01 to 0.1 µM and above 1 µM, respectively.
On the same counts, the results for `CN(CCS(C)(=O)=O)c1ccc2ccc(OCc3cncc(-n4cc(-c5ccn(C)n5)c5c(N)ncnc54)c3)cc2n1` [Compound I-175] are 0.1 to 1 µM and above 1 µM.
`Cn1ccc(-c2cn(-c3cncc(COc4ccc(C(=O)N5CCNCC5)c(N)c4)c3)c3ncnc(N)c23)n1` [Compound I-176]: the IC50 in test [1] is 0.1 to 1 µM; in test [2], above 1 µM.
On the same counts, the results for `CN(C)C(=O)c1ccc(OCc2cncc(-n3cc(-c4ccn(C)n4)c4c(N)ncnc43)c2)cc1N` [Compound I-177] are above 1 µM and above 1 µM.
On the same counts, the results for `Cn1ccc(-c2cn(-c3cncc(COc4ccc(C(=O)N5CCOCC5)c(N)c4)c3)c3ncnc(N)c23)n1` [Compound I-178] are above 1 µM and above 1 µM.
The like results for `CN(CC1CC1)C(=O)c1ccc(OCc2cncc(-n3cc(-c4ccn(C)n4)c4c(N)ncnc43)c2)cc1N` [Compound I-179] were, in that order, above 1 µM and above 1 µM.
As for `CCc1ccc2ccc(OCc3cncc(-n4cc(-c5ccn(C)n5)c5c(N)ncnc54)c3)cc2n1` [Compound I-180], the IC50 is 0.01 to 0.1 µM in test [1] and above 1 µM in test [2].
As for `Cn1ccc(-c2cn(-c3cncc(COc4cc(F)ccc4C(=O)NC4CCOCC4)c3)c3ncnc(N)c23)n1` [Compound I-181], the IC50 in test [1] and in test [2] was above 1 µM each time.
For `Nc1ncnc2c1c(CO)cn2-c1cncc(COc2ccc3ccc(N4CCC4)nc3c2)c1` [Compound I-182], the IC50 in test [1] is below 0.01 µM.
With `Cn1ccc(-c2cn(-c3cncc(COc4ccc5cnc(N6CCC6)nc5c4)c3)c3ncnc(N)c23)n1` [Compound I-183], the half-maximal inhibitory concentration (IC50) in test [1] and in test [2] was above 1 µM in each case.
For the compound `COc1ccccc1-c1cn(-c2cncc(COc3ccc4ccc(N5CCC5)nc4c3)c2)c2ncncc12` [Compound I-184], the IC50 in test [1] and in test [2] was above 1 µM throughout.
Turning to `Cn1ccc(-c2cn(-c3cncc(COc4ccc(C(=O)N5CCC(F)(F)CC5)c(N)c4)c3)c3ncnc(N)c23)n1` [Compound I-186], the IC50 in test [1] and in test [2] was above 1 µM in each case.
As for `Cn1ccc(-c2cn(-c3cncc(COc4ccc(C(=O)NC5CCOCC5)c(N)c4)c3)c3ncnc(N)c23)n1` [Compound I-187], the IC50 is 0.1 to 1 µM in test [1] and above 1 µM in test [2].
The like results for `Cn1ccc(-c2cn(-c3cncc(COc4ccc5ccc(N6CCC6=O)nc5c4)c3)c3ncnc(N)c23)n1` [Compound I-188] were, in that order, above 1 µM and above 1 µM.
The like results for `Cn1ccc(-c2cn(-c3cncc(COc4ccc5ccc(C6CCOCC6)nc5c4)c3)c3ncnc(N)c23)n1` [Compound I-189] were, in that order, 0.1 to 1 µM and above 1 µM.
The like results for `Nc1ncnc2c(-c3cncc(COc4ccc5ccc(N6CCC6)nc5c4)c3)c[nH]c12` [Compound I-190] were, in that order, below 0.01 µM and above 1 µM.
Regarding `COCCN(C)C(=O)c1ccc(OCc2cncc(-n3cc(-c4ccn(C)n4)c4c(N)ncnc43)c2)cc1N` [Compound I-191], the IC50 in test [1] and in test [2] was above 1 µM in each case.
Consider `Cn1ccc(-c2cn(-c3cncc(COc4ccc5ccc(N6CC7(CCC7)C6)nc5c4)c3)c3ncnc(N)c23)n1` [Compound I-194], for which the half-maximal inhibitory concentration (IC50) in test [1] is 0.1 to 1 µM; in test [2], above 1 µM.
The like results for `Cn1ccc(-c2cn(-c3cncc(COc4ccc5ccc(N6CCCC6=O)nc5c4)c3)c3ncnc(N)c23)n1` [Compound I-195] were, in that order, above 1 µM and above 1 µM.
The like results for `Cn1ccc(-c2cn(-c3cncc(COc4ccc5ccc(N6CCOCC6)nc5c4)c3)c3ncnc(N)c23)n1` [Compound I-196] were, in that order, 0.01 to 0.1 µM and 0.1 to 1 µM.
On the same counts, the results for `Cn1ccc(-c2cn(-c3cncc(COc4ccc5ccc(N6CCC(F)(F)CC6)nc5c4)c3)c3ncnc(N)c23)n1` [Compound I-197] are 0.1 to 1 µM and above 1 µM.
